Our source for the TGI and GI50 values is PubChem BioAssay (NCI).

Test systems include M19-MEL melanoma; LXFL 529 NSCLC; MDA-N; T-47D breast.
What all share (assay): NCI anticancer screen, dose series, 48 h

SMILES strings stand for the structures.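 1) Cells in 96-well plates. 2) Compound, 48 h, 5 concentrations. 3) Linear interpolation between surrounding doses. 4) Unreached endpoint = highest concentration. GI50 is the concentration that inhibits growth by half. TGI denotes the concentration required for complete inhibition of growth.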 Where only a bound is given, the exact number is not on record here.

As to `O=[N+]([O-])c1ccc(C2=Nc3ccccc3SC(c3ccccc3)C2)cc1` (stereo not given), the TGI with M19-MEL melanoma is 31 µM; in the assay on LXFL 529 NSCLC, 34.8 µM.

As for `O=C(c1ccco1)C1CC(c2c(O)ccc3ccccc23)=NN1` (stereo not given), the TGI came out at 36.4 µM in the assay on MDA-N and 50.5 µM in the assay on T-47D breast.

As for `NC(=O)c1ncn2c1NC(=O)CC2`, in the assay with M19-MEL melanoma, the TGI was greater than 100 µM.

Regarding `COC(=O)C1=C(O)C(C(=O)OC)[C@@]2(O)[C@@H](C(=O)OC)[C@H](C)[C@@H](C)[C@@H]1[C@@H]2C(=O)OC` (stereo not given in full), the TGI was 50.1 µM in the assay with MDA-N and greater than 100 µM with T-47D breast.

`CC1(C)OC2CC(=O)OCC23C1CC(=O)C1(C)C3CCC2(C)C(c3ccoc3)OC(=O)C3OC321` (stereo not given) registered a TGI in the assay with M19-MEL melanoma greater than 125 µM.

As to `CCN1C(=O)N(CC)C2Nn3c(s/c(=C4\C(=O)N(C)c5ccccc54)c3=O)=NC21` (stereo not given), in the assay on T-47D breast, the GI50 is 3.14 µM and the TGI was greater than 100 µM.

In turn, `Cc1c2ccncc2c(C)c2c1[nH]c1ccccc12` registered a TGI with M19-MEL melanoma of 2.16 µM. In addition, in the assay on T-47D breast, the GI50 was 0.173 µM and the TGI amounted to 0.509 µM.

Regarding `O=C(OCc1ccccc1)C(Cc1ccccc1)N(Cc1ccccc1)Cc1ccccc1` (stereo not given), the TGI in the assay with M19-MEL melanoma and with LXFL 529 NSCLC was greater than 100 µM in each case.
